Assay results from patent publication US8101774B2, “Ester derivatives and medicinal use thereof” (Japan Tobacco Inc., priority 2004, dated 2012).
Structures can show the parent of a compound that is named as a salt.

These molecules were tested against T1, Microsomal triglyceride transfer protein (MTP) from human small intestine microsome (Homo sapiens, UniProt P55157) (assay: Inhibition test of interliposomal triglyceride (TG) transfer activity by MTP). Details: purified MTP from human small intestine microsome, 37° C., 1.5 hours.
T1 construct: Human small intestine microsome was dialyzed against 10 mM phosphate buffer; tissue Tissue Transforming Technologies, Inc; host or cells: human small intestine microsome
T1 sequence (P55157 19-894): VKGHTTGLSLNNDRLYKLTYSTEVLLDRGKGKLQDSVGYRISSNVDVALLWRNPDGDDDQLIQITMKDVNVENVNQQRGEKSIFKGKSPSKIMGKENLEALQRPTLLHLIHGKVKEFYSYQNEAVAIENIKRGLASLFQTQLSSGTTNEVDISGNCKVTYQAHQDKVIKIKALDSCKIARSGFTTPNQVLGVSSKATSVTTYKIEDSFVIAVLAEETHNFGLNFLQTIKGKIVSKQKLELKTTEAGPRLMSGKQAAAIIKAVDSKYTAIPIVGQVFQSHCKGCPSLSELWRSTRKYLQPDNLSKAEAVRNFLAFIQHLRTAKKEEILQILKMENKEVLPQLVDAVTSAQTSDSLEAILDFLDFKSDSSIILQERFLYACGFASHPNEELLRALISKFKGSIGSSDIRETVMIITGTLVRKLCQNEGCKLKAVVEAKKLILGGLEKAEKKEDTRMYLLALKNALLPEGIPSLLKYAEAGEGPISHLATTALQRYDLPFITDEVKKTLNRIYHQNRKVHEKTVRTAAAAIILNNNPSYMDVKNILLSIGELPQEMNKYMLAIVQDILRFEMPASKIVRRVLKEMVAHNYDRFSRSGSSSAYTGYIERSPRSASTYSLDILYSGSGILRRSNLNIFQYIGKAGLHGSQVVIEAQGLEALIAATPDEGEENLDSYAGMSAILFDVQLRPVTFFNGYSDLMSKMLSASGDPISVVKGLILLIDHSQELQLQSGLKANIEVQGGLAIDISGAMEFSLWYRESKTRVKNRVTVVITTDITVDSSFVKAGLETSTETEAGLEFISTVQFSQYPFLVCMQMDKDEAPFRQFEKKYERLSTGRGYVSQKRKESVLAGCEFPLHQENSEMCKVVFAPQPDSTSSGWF
T1 sequence (P07237 18-508 partner): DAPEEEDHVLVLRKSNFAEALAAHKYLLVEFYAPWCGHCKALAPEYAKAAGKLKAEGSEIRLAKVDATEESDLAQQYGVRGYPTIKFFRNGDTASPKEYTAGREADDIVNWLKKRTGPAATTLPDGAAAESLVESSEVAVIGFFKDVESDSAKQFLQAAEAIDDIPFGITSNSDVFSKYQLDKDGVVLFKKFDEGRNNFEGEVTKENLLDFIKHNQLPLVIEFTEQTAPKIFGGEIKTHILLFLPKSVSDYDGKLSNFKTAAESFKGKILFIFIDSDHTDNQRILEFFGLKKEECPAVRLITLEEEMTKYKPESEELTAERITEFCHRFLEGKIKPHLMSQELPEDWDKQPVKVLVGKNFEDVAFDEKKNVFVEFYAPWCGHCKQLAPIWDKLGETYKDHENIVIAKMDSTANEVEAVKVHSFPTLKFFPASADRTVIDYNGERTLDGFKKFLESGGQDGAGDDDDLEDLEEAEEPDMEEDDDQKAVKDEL
Format: biochemical
Method in brief: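 DEAE-purified human small intestine MTP (50 μL of 20 μg/mL) incubated 1.5 hours at 37° C with ^14C-triolein donor and unlabelled acceptor SUV liposomes in pH 7.4 Tris buffer with 0.5% BSA. Donor removed on DEAE cellulose; acceptor radioactivity counted, blank-corrected against DMSO control, giving percent inhibition and IC50.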
In the case of `CN(C)C(=O)c1cc(CCCC(=O)Oc2ccc(C(=O)OC3CCCc4ccccc43)cc2)ccc1NC(=O)c1ccccc1-c1ccc(C(F)(F)F)cc1` (stereo not shown) [Compound 1-108, 4-[4-(3-dimethylcarbamoyl-4-{(4′-trifluoromethylbiphenyl-2-carbonyl)amino}phenyl)butyryloxy]benzoic acid 1,2,3,4-tetrahydronaphthalen-1-yl ester], the IC50 is reported as less than 10 nM.
With `COC(=O)c1ccc(OC(=O)CCCc2ccc(NC(=O)c3ccc(C)nc3-c3ccc(C(F)(F)F)cc3)c(C(=O)N(C)C)c2)c(C)c1` [Compound 1-69, 4-[4-(3-dimethylcarbamoyl-4-{[6-methyl-2-(4-trifluoromethylphenyl)pyridine-3-carbonyl]amino}phenyl)butyryloxy]-3-methylbenzoic acid methyl ester] the IC50 was 10 to 100 nM.
In the case of `COC(=O)c1ccc(OC(=O)CCCc2ccc(NC(=O)c3ccccc3-c3ccc(C(F)(F)F)cc3)c(C(=O)N(C)C)c2)cc1` [Compound 1-5], the IC50 is reported as less than 10 nM.
`COC(=O)c1ccc(OC(=O)CCCc2ccc(NC(=O)c3ccccc3-c3ccc(C(F)(F)F)cc3)c(C(=O)N(C)C)c2)c(Cl)c1` [Compound 1-11, 3-chloro-4-(4-{3-dimethylcarbamoyl-4-[(4′-trifluoromethylbiphenyl-2-carbonyl)amino]phenyl}butyryloxy)benzoic acid methyl ester] was tested, and the IC50 was less than 10 nM.
In the case of `CCc1cc(C(=O)OC)cc(F)c1OC(=O)CCCc1ccc(NC(=O)c2ccc(C)nc2-c2ccc(C(F)(F)F)cc2)c(C(=O)N(C)C)c1` [Compound 1-42, 4-[4-(3-dimethylcarbamoyl-4-{[6-methyl-2-(4-trifluoromethylphenyl)pyridine-3-carbonyl]amino}phenyl)butyryloxy]-3-ethyl-5-fluorobenzoic acid methyl ester], the IC50 is reported as less than 10 nM.
Molecule `CC(C)OC(=O)c1ccc(OC(=O)CCCc2ccc(NC(=O)c3ccccc3-c3ccc(C(F)(F)F)cc3)c(C(=O)N(C)C)c2)cc1` [Compound 1-7, 4-(4-{3-dimethylcarbamoyl-4-[(4′-trifluoromethylbiphenyl-2-carbonyl)amino]phenyl}butyryloxy)benzoic acid isopropyl ester] has an IC50 of less than 10 nM.
`CCOc1cc(C(=O)OC)cc(OC)c1OC(=O)CCCc1ccc(NC(=O)c2ccc(C)nc2-c2ccc(C(F)(F)F)cc2)c(C(=O)N(C)C)c1` [Compound 1-49, 4-[4-(3-dimethylcarbamoyl-4-{[6-methyl-2-(4-trifluoromethylphenyl)pyridine-3-carbonyl]amino}phenyl)butyryloxy]-3-ethoxy-5-methoxybenzoic acid methyl ester] showed an IC50 of less than 10 nM.
`COC(=O)c1ccc(OC(=O)CCCc2ccc(NC(=O)c3ccc(C)nc3-c3ccc(C(F)(F)F)cc3)c(C(=O)N(C)C)c2)c(C(=O)OC)c1` [Compound 1-70, 4-[4-(3-dimethylcarbamoyl-4-{[6-methyl-2-(4-trifluoromethylphenyl)pyridine-3-carbonyl]amino}phenyl)butyryloxy]isophthalic acid dimethyl ester] showed an IC50 of less than 10 nM.
For `COC(=O)c1cc(C(=O)OC(C)C)ccc1OC(=O)CCCc1ccc(NC(=O)c2ccc(C)nc2-c2ccc(C(F)(F)F)cc2)c(C(=O)N(C)C)c1` [Compound 1-72, 4-[4-(3-dimethylcarbamoyl-4-{[6-methyl-2-(4-trifluoromethylphenyl)pyridine-3-carbonyl]amino}phenyl)butyryloxy]isophthalic acid 1-isopropyl ester 3-methyl ester], the IC50 was less than 10 nM.
Work on `COC(=O)c1cc(C)c(OC(=O)CCCc2ccc(NC(=O)c3ccc(C)nc3-c3ccc(C(F)(F)F)cc3)c(C(=O)N(C)C)c2)c(C)c1` [Compound 1-65, 4-[4-(3-dimethylcarbamoyl-4-{[6-methyl-2-(4-trifluoromethylphenyl)pyridine-3-carbonyl]amino}phenyl)butyryloxy]-3,5-dimethylbenzoic acid methyl ester] yielded an IC50 of less than 10 nM.
In the case of `CC(=O)c1ccc(OC(=O)CCCc2ccc(NC(=O)c3ccccc3-c3ccc(C(F)(F)F)cc3)c(C(=O)N(C)C)c2)cc1` [Compound 1-22, 4-{3-dimethylcarbamoyl-4-[(4′-trifluoromethylbiphenyl-2-carbonyl)amino]phenyl}butyric acid 4-acetylphenyl ester], the IC50 is reported as 10 to 100 nM.
`COC(=O)c1ccc(OC(=O)C2CCN(c3ccc(NC(=O)c4ccccc4-c4ccc(C(F)(F)F)cc4)c(C(=O)N(C)C)c3)CC2)cc1` [Compound 3-1, 1-{3-dimethylcarbamoyl-4-[(4′-trifluoromethylbiphenyl-2-carbonyl)amino]phenyl}piperidine-4-carboxylic acid 4-methoxycarbonylphenyl ester] gave an IC50 of 10 to 100 nM.
`CN(C)C(=O)c1cc(CCCC(=O)Oc2ccc(C(=O)OC3CCc4ccccc43)cc2)ccc1NC(=O)c1ccccc1-c1ccc(C(F)(F)F)cc1` (stereo not shown) [Compound 1-107, 4-[4-(3-dimethylcarbamoyl-4-{(4′-trifluoromethylbiphenyl-2-carbonyl)amino}phenyl)butyryloxy]benzoic acid indan-1-yl ester] was tested, and the IC50 was less than 10 nM.
For `CCc1cc(C(=O)OC)cc(Cl)c1OC(=O)CCCc1ccc(NC(=O)c2ccc(C)nc2-c2ccc(C(F)(F)F)cc2)c(C(=O)N(C)C)c1` [Compound 1-73, 3-chloro-4-[4-(3-dimethylcarbamoyl-4-{[6-methyl-2-(4-trifluoromethylphenyl)pyridine-3-carbonyl]amino}phenyl)butyryloxy]-5-ethylbenzoic acid methyl ester], the IC50 was less than 10 nM.
Work on `CCc1cc(C(=O)OC)cc(C(=O)OC)c1OC(=O)CCCc1ccc(NC(=O)c2ccc(C)nc2-c2ccc(C(F)(F)F)cc2)c(C(=O)N(C)C)c1` [Compound 1-51, 4-[4-(3-dimethylcarbamoyl-4-{[6-methyl-2-(4-trifluoromethylphenyl)pyridine-3-carbonyl]amino}phenyl)butyryloxy]-5-ethylisophthalic acid dimethyl ester] yielded an IC50 of less than 10 nM.
In the case of `CN(C)C(=O)c1cc(CCCC(=O)Oc2ccc(C(=O)OCc3cccs3)cc2)ccc1NC(=O)c1ccccc1-c1ccc(C(F)(F)F)cc1` [Compound 1-98, 4-[4-(3-dimethylcarbamoyl-4-{(4′-trifluoromethylbiphenyl-2-carbonyl)amino}phenyl)butyryloxy]benzoic acid thiophen-2-ylmethyl ester], the IC50 is reported as less than 10 nM.
`COc1cc(C(=O)OC(C)C)cc(Cl)c1OC(=O)CCCc1ccc(NC(=O)c2ccc(C)nc2-c2ccc(C(F)(F)F)cc2)c(C(=O)N(C)C)c1` [Compound 1-37, 3-chloro-4-[4-(3-dimethylcarbamoyl-4-{[6-methyl-2-(4-trifluoromethylphenyl)pyridine-3-carbonyl]amino}phenyl)butyryloxy]-5-methoxybenzoic acid isopropyl ester] was tested, and the IC50 was less than 10 nM.
In the case of `COC(=O)c1ccc(OC(=O)CCCc2ccc(NC(=O)c3ccccc3-c3ccc(C(F)(F)F)cc3)c(C(=O)N(C)C)c2)cc1Cl` [Compound 1-18, 2-chloro-4-(4-{3-dimethylcarbamoyl-4-[(4′-trifluoromethylbiphenyl-2-carbonyl)amino]phenyl}butyryloxy)benzoic acid methyl ester], the IC50 is reported as less than 10 nM.
With `Cc1ccc(C(=O)Nc2ccc(CCCC(=O)Oc3ccc(C(=O)OC(C)C)cc3)cc2C(=O)N(C)C)c(-c2ccc(C(F)(F)F)cc2)n1` [Compound 1-63, 4-[4-(3-dimethylcarbamoyl-4-{[6-methyl-2-(4-trifluoromethylphenyl)pyridine-3-carbonyl]amino}phenyl)butyryloxy]benzoic acid isopropyl ester sulfate] the IC50 was less than 10 nM.
Work on `COC(=O)c1ccc(OC(=O)CCCc2ccc(NC(=O)c3ccc(C)nc3-c3ccc(C(F)(F)F)cc3)c(C(=O)N(C)C)c2)cc1` [Compound 1-13, 4-[4-(3-dimethylcarbamoyl-4-{[6-methyl-2-(4-trifluoromethylphenyl)pyridine-3-carbonyl]amino}phenyl)butyryloxy)benzoic acid methyl ester] yielded an IC50 of less than 10 nM.
`CCCC(=O)c1ccc(OC(=O)CCCc2ccc(NC(=O)c3ccccc3-c3ccc(C(F)(F)F)cc3)c(C(=O)N(C)C)c2)cc1` [Compound 1-93, 4-(3-dimethylcarbamoyl-4-{(4′-trifluoromethylbiphenyl-2-carbonyl)amino}phenyl)butyric acid 4-butyrylphenyl ester] showed an IC50 of less than 10 nM.
`CN(C)C(=O)c1cc(CCCC(=O)Oc2ccc(C(=O)OCc3ccccn3)cc2)ccc1NC(=O)c1ccccc1-c1ccc(C(F)(F)F)cc1` [Compound 1-82, 4-[4-(3-dimethylcarbamoyl-4-{(4′-trifluoromethylbiphenyl-2-carbonyl)amino}phenyl)butyryloxy]benzoic acid pyridin-2-ylmethyl ester] gave an IC50 of less than 10 nM.
With `COC(=O)c1ccc(OC(=O)CCCc2ccc(NC(=O)c3ccccc3-c3ccc(C(F)(F)F)cc3)c(C(=O)N(C)C)c2)cc1C(F)(F)F` [Compound 1-21, 4-(4-{3-dimethylcarbamoyl-4-[(4′-trifluoromethylbiphenyl-2-carbonyl)amino]phenyl}butyryloxy)-2-trifluoromethylbenzoic acid methyl ester] the IC50 was 10 to 100 nM.
`COC(=O)c1ccc(OC(=O)C2CCN(c3ccc(NC(=O)c4ccccc4-c4ccc(C(F)(F)F)cc4)c(C(=O)N(C)C)c3)CC2)c(F)c1` [Compound 3-2, 1-{3-dimethylcarbamoyl-4-[(4′-trifluoromethylbiphenyl-2-carbonyl)amino]phenyl}piperidine-4-carboxylic acid 2-fluoro-4-methoxycarbonylphenyl ester] showed an IC50 of 10 to 100 nM.
`CN(C)C(=O)c1cc(CCCC(=O)Oc2ccc(C(=O)OCc3cccc(Cl)c3)cc2)ccc1NC(=O)c1ccccc1-c1ccc(C(F)(F)F)cc1` [Compound 1-87, 4-[4-(3-dimethylcarbamoyl-4-{(4′-trifluoromethylbiphenyl-2-carbonyl)amino}phenyl)butyryloxy]benzoic acid 3-chlorobenzyl ester] was tested, and the IC50 was less than 10 nM.
